Reference: patent US20100292229A1, “TRYPHOSTIN-ANALOGS FOR THE TREATMENT OF CELL PROLIFERATIVE DISEASES” (The Board of Regents of the University of Texas System, priority 2006, published 2010)
Where two headings read alike, the source gives them in different places.

Columns and labels:
Format in all cases: cell-based
MM-1 cells = experiment: MTT assay of cell growth and survival, MM-1 cells
Protocol: All compounds are tested for purity (HPLC, NMR) and the calculated molecular weight is used to make up a 10 mM stock solution of each compound (in 100% dimethylsulfoxide or 50% dimethylsulfoxide:50% polyethylene glycol 300). Compounds are diluted into cell culture media consisting of RPMI 1640 with 10% fetal bovine serum to a final starting concentration of 10 μM. [Highest final DMSO content=0.1%.]. Tumor cells (20,000 for non-adherent cells; 5,000 for adherent cells) are plated into individual wells of a 96-well culture plate in 0.1 ml of culture media. Diluted compounds are added to individual wells containing pre-plated cells (final volume 0.2 ml) and incubated at 37° C. for 24 to 72 h. Wells receiving vehicle alone acted as a control.
MTT (viability) assay. MTT reagent (20 μl of 5 mg/ml stock solution, Sigma) is added to the cells and the plates are incubated at 37° C. for another 2 h. Cells are lysed by adding 100 μl of lysis buffer (20% SDS in 50% N,N-dimethylformamide (Sigma) adjusted to pH 4.7 by 80% acetic acid and 1 M HCl such that the final concentration of acetic acid is 2.5% and HCl is 2.5%) into each well and incubated for 6 h. The OD570 of each sample is determined by using a SPECTRA MAX M2 plate reader (Molecular Devices). The OD in control and treated wells is used as an estimate of the effect of compounds on cell growth and survival.
Cell lines. […] A375 melanoma cells were grown and maintained in the same media. Ba/F3 parental cells were grown in RPMI 1640 containing 10% heat inactivated fetal bovine serum and 2 mM glutamine supplemented with IL-3 (1 ng/ml) while Ba/F3 cells stably expressing Bcr/Abl or the T315I mutant of Bcr/Abl were grown in RPMI 1640 containing 10% heat inactivated fetal bovine serum and 2 mM glutamine in the absence of IL-3. Normal human dermal fibroblasts (NHDF) were obtained from Cambrex (Walkersville, Md.) and grown in specially formulated media (obtained through Cambrex) with 20% fetal calf serum.
IC50 determinations. The anti-tumor activity of certain compounds of the present invention against MM-1 cell lines was investigated and the IC50 values calculated (FIGS. 33A-F). In a typical experiment, MM-1 cell lines were incubated with a range of compound concentrations for 72 h to determine the concentration required to inhibit cell growth or induce apoptosis by 50% (IC50). MTT assays as described above were used to conduct this analysis.

[1] = test system: p70 and p55 tyrosine phosphorylation; experiment: Phosphotyrosine (4G10) immunoblot in B-cell malignancy cell lines
Protocol: MM-1 cells were pretreated with Degrasyn (at the concentration indicated) for 2 h before the addition of IL-6 for 15 min (as noted). Total cell lysates were prepared and equal protein aliquots were resolved by SDS-PAGE and immunoblotted for phosphotyrosine (4G10).
MM-1 and LP (lymphoma) cells were treated with Degrasyn (at the concentration indicated) for 2 h before cell lysates were prepared and equal protein aliquots were resolved by SDS-PAGE and immunoblotted for phosphotyrosine (4G10).
MM-1 and Mino (Mantle cell lymphoma) cells were treated with Degrasyns with different levels of anti-tumor efficacy (at the concentration indicated) for 2 h before cell lysates were prepared and equal protein aliquots were resolved by SDS-PAGE and immunoblotted for phosphotyrosine (4G10).
MM-1 cells were treated as indicated before analysis of cellular tyrosine phosphorylation by immunoblotting. Both p70 and p55 were tyrosine phosphorylated after 15 min of Degrasyn treatment which peaks in intensity after 1 h and remains higher than control levels after 4 h. These early changes may underlie or be a marker of Degrasyn activity in B-cell malignancies.
(§1) Western Blot analysis. Cells were harvested, washed twice in cold 1×PBS and lysed in modified RIPA lysis buffer (150 mM NaCl, 1% NP-40, 0.5% Na-deoxycholate [DOC], 0.1% Na-dodecyl sulfate [SDS], 50 mM Tris-HCl (pH 7.5), 1 mM EDTA, 1 mM NaF, 2 mM Na-vanadate, with protease inhibitors (1 mM PMSF, 1 mM benzamidine, 10 μg/ml aprotinin, 10 μg/ml leupeptin) on ice for 30 min. The lysed cells were centrifuged at 13,000 rpm for 30 min and the supernatant collected. The protein concentration of the cell lysate was determined by the Bradford Protein Assay. Fifty to 60 μg of protein were resolved in a 10% SDS-PAGE, and transferred to a PVDF membrane. Western blotting was performed using specific primary antibodies Peroxidase-conjugated affiniPure anti-Mouse Anti-Rabbit secondary antibodies (Jackson Immunoresearch Laboratories, West Grove, Pa.). The proteins were visualized with ECL Plus reagents (Amersham Biosciences).

c-myc = target: T1, c-myc (Homo sapiens, UniProt P01106); experiment: c-myc protein immunoblot in MM-1 cells
T1 construct: endogenous in cells; host or cells: MM-1 cells
T1 sequence (P01106 16-454 limits assumed): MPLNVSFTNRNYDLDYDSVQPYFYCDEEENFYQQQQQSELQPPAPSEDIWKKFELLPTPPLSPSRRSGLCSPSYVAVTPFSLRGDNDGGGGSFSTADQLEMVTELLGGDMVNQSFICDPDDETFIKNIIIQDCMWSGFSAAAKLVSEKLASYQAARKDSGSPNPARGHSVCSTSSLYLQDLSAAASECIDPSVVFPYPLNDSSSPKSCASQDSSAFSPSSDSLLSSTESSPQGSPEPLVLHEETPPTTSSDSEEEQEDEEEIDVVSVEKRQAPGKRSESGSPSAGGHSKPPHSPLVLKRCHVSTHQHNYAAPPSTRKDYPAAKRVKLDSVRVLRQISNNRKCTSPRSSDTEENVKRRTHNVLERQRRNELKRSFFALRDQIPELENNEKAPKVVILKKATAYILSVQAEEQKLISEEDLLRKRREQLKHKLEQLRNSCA
Protocol: Top: MM-1 cells were incubated with 5 μM Degrasyn for the interval noted before cell lysates were prepared and subjected to immunoblotting for c-myc and actin as a protein loading control.
Middle: MM-1 cells were treated with the indicated concentration of Degrasyn for 1 h before lysates were immunoblotted for c-myc and actin.
Bottom: MM-1 cells were treated as indicated before extraction of total RNA (TRIzol). RNA was resolved by agarose electrophoresis, transferred to a membrane and hybridized with a c-myc probe to determine the level of c-myc RNA in each sample. The ethidium bromide stained gel was photographed and 28S RNA content was detected as a measure of RNA content in each lane.
MM-1 cells were pretreated with protease/proteosome inhibitors (LLnL; LLnM; E-64d; MG132; PS341; Chloroquine; Ammonium Chloride; Cycloheximide) for 2 h before the addition of 5 μM Degrasyn or vehicle alone (DMSO as indicated) for an additional 2 h. Cell lysates were prepared and equal protein aliquots were subjected to immunoblotting for c-myc, Max (a c-myc binding partner) or actin as a protein loading control.
Pictured: MM-1 cells were treated with biotinylated Degrasyn (Bio-Deg) or Degrasyn (at the indicated concentration) for 1 h before analyzing effects on c-myc as described in FIG. 15.
as §1

Stat3 = experiment: IL-6 stimulated Stat3 activation (pY-Stat3) immunoblot in MM-1 cells
Protocol: Left: MM-1 cells were pretreated with Degrasyn (5 μM WP1130) for 2 h before incubation with IL-6 (10 ng/ml) for 15 min. Cell lysates were prepared and assessed for Stat3 activation (pY-Stat3) and protein levels (Stat3) by immunoblotting. Actin was used as a control for protein loading.
Left: MM-1 cells were pretreated with buffer alone (−), AG490 (50 μM) or Degrasyn (5 μM) for 2 h before incubation with IL-6 for 15 min. Cell lysates were prepared and Jak2 was immunoprecipitated and immunoblotted with anti-Jak2 (top). Cell lysates (50 μg) were immunoblotted for pY-Stat3, Stat3 or actin.
as §1, with “Western blotting was performed using specific primary antibodies Peroxidase-conjugated affiniPure anti-Mouse Anti-Rabbit secondary antibodies (Jackson Immunoresearch Laboratories, West Grove, Pa.). The proteins were visualized with ECL Plus reagents (Amersham Biosciences).” left out

CCC[C@H](NC(=O)/C(C#N)=C/c1cccc(Br)n1)c1ccccc1 [Degrasyn]
IC50 (MM-1 cells; FIG. 21, anti-tumor activity, read-out: IC50 for MM-1 cells): 1400 nM | IC50 (MM-1 cells; FIG. 31, 72 h, MTT, average of 4 determinations, read-out: IC50, MM-1 cells): ~1200 nM | Tyrosine phosphorylated protein species (~70 kDa, ~55 kDa) ([1]; 2 h, MM-1, LP or Mino cells): increased | Time at which p70 and p55 were tyrosine phosphorylated ([1]; MM-1): 15 min | Time of peak intensity of p70 and p55 tyrosine phosphorylation ([1]; MM-1): 1 h | Tyrosine phosphorylated protein species (~70 kDa, ~55 kDa), with IL-6 ([1]; MM-1, 2 h pretreatment, IL-6 15 min): increased | c-myc protein content and c-myc RNA (c-myc): reduces c-myc protein content without effecting c-myc gene expression | c-myc protein, time course (c-myc; 5 μM): caused a rapid reduction of c-myc protein | c-myc protein, concentration dependence (c-myc; 1 h): caused a concentration dependent reduction in c-myc protein levels | c-myc protein levels (c-myc; FIG. 21, 1 h): reduced c-myc protein levels | Stat3 activation (pY-Stat3) (Stat3; 5 μM, 2 h pretreatment, IL-6 10 ng/ml 15 min): blocked Stat3 activation | Stat3 activation compared with AG490 (Stat3; Degrasyn 5 μM vs AG490 50 μM, 2 h, IL-6 15 min): reduces Stat3 activation more effectively than 10-fold greater concentrations of AG490
